Assay results published in ChEMBL document CHEMBL1165922, “Vitamin D receptor agonist/histone deacetylase inhibitor molecular hybrids” (Bioorg Med Chem, 2010).
Activity calls are given as the source filed them. The rule behind the calls is not given here.

Assays:
[1] = biological target: Histone deacetylase 3 (Homo sapiens, UniProt O15379); experiment: Inhibition of HDAC3 after 10 mins by fluorometric assay
[2] = test system: Mus musculus; experiment: Toxicity in FVB mouse assessed as calcium level in blood at 240 pmol/day administered via osmotic pump for 6 to 7 days measured on day 7 by microchemistry (RVb = […] mmol/L); type: organism-based; details: in vivo, other
[3] = biological target: T1, Vitamin D3 receptor (Homo sapiens, UniProt P11473)
T1 sequence (P11473 whole entry): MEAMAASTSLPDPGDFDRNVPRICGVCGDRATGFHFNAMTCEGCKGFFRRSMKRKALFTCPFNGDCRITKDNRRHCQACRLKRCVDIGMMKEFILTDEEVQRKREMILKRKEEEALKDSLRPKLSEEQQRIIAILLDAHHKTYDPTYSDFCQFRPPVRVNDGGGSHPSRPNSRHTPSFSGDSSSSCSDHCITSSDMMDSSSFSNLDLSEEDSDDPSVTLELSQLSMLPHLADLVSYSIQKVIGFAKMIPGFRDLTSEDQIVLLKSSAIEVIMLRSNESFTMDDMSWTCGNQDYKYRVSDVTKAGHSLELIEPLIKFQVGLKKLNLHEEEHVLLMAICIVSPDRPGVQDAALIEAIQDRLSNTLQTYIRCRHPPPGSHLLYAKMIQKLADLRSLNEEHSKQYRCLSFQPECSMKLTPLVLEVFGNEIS
Description: Binding affinity to VDR ligand binding domain by fluorescence polarization competition assay

[4] = biological target: T2, Protein deacetylase HDAC6 (Homo sapiens, UniProt Q9UBN7); experiment: Inhibition of HDAC6 after 10 mins by fluorometric assay
T2 sequence (Q9UBN7 whole entry): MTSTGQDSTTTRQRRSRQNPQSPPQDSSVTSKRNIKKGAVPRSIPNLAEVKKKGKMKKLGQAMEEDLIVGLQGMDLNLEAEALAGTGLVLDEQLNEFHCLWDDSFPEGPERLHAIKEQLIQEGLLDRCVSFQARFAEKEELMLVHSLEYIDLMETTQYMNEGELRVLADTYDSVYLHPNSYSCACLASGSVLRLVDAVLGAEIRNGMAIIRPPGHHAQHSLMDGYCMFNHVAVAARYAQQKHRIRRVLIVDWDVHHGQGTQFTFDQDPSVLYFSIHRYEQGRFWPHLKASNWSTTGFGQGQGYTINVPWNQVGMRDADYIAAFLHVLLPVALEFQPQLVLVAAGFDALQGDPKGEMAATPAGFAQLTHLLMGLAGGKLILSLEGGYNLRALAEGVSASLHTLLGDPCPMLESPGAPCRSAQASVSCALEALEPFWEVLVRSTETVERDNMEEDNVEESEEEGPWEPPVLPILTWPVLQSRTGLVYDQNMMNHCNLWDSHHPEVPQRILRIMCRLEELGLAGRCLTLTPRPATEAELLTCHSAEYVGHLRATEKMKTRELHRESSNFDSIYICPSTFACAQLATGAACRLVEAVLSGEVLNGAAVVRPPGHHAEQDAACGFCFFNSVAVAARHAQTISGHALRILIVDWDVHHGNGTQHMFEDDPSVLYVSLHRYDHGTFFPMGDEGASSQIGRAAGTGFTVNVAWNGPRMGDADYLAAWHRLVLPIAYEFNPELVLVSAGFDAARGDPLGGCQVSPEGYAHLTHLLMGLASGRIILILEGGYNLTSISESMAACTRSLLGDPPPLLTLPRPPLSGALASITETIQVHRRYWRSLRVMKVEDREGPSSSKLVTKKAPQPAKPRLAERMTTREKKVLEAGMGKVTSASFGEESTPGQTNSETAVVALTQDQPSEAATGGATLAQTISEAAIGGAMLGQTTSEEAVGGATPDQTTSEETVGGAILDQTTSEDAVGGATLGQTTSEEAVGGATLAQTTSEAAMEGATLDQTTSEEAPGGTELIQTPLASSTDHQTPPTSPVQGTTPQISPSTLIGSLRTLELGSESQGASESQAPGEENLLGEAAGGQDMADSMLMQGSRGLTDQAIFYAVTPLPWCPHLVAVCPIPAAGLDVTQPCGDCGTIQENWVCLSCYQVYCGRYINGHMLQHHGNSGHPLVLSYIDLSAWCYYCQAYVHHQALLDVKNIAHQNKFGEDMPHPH

[5] = test system: Mus musculus; experiment: Toxicity in FVB mouse assessed as calcium level in blood at 240 pmol/day administered via osmotic pump for 6 to 7 days measured on day 4 by microchemistry (RVb = 2.11 mmol/L); type: organism-based; details: in vivo, other
[6] = test system: AT84; experiment: Antiproliferative activity against mouse AT84 cells at 100 to 500 nM after 48 hrs by EdU incorporation assay; type: functional, cell-based
[7] = test system: Mus musculus; experiment: Toxicity in FVB mouse assessed as calcium level in blood at 1200 pmol/day administered via osmotic pump for 6 to 7 days measured on day 7 by microchemistry (RVb = […] mmol/L); type: organism-based; details: in vivo, other
[8] = biological target: Histone deacetylase 2 (Homo sapiens, UniProt Q92769); experiment: Inhibition of HDAC2 after 10 mins by fluorometric assay
Histone deacetylase 2, sequence (Q92769 whole entry): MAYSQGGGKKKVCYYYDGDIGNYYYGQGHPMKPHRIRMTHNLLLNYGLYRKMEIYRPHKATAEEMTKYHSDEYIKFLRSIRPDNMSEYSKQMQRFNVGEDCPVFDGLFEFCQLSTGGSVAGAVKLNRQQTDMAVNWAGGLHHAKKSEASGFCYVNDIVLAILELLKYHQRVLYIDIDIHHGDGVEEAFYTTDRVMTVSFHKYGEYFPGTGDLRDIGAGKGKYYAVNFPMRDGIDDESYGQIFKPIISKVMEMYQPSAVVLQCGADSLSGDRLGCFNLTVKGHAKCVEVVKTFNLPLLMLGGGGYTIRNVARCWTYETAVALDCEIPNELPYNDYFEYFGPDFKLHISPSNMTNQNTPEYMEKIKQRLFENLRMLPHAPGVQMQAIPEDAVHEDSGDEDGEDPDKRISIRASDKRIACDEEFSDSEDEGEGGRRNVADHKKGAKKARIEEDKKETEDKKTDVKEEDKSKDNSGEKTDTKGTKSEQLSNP

[9] = test system: Mus musculus; experiment: Toxicity in FVB mouse assessed as calcium level in blood at 1200 pmol/day administered via osmotic pump for 6 to 7 days measured on day 4 by microchemistry (RVb = 2.11 mmol/L); type: organism-based; details: in vivo, other
[10] = test system: Mus musculus; experiment: Toxicity in FVB mouse assessed as calcium level in blood at 1200 pmol/day administered via osmotic pump for 6 to 7 days measured on day 3 by microchemistry (RVb = 2.24 mmol/L); type: organism-based; details: in vivo, other
[11] = test system: Mus musculus; experiment: Toxicity in FVB mouse assessed as calcium level in blood at 1200 pmol/day administered via osmotic pump for 6 to 7 days measured on day 6 by microchemistry (RVb = 2 mmol/L); type: organism-based; details: in vivo, other
[12] = test system: Mus musculus; experiment: Toxicity in FVB mouse assessed as calcium level in blood at 240 pmol/day administered via osmotic pump for 6 to 7 days measured on day 6 by microchemistry (RVb = 2 mmol/L); type: organism-based; details: in vivo, other
[13] = test system: Mus musculus; experiment: Toxicity in FVB mouse assessed as calcium level in blood at 240 pmol/day administered via osmotic pump for 6 to 7 days measured on day 3 by microchemistry (RVb = 2.24 mmol/L); type: organism-based; details: in vivo, other

Histone deacetylase 3, sequence (O15379 whole entry): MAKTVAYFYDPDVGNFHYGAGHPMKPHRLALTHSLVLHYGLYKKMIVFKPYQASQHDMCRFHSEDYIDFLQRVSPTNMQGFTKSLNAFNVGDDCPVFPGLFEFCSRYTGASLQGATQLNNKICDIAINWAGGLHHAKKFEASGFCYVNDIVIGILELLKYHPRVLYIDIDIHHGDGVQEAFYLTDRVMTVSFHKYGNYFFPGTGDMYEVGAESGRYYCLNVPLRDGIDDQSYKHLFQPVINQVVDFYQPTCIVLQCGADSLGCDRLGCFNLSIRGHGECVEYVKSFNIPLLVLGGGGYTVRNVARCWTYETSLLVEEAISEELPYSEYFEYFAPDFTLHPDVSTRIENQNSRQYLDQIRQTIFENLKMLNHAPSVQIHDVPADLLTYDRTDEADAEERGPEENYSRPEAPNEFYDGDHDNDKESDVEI

IC50 [1] | IC50 [3] | IC50 [4] | IC50 [8] | Structure (SMILES) | Activity [2] | Activity [5] | Activity [6] | Activity [7] | Activity [9] | Activity [10] | Activity [11] | Activity [12] | Activity [13]
508 µM | 0.015 µM | 293 µM | – | C[C@H](CCCCNS(=O)(=O)c1ccccc1)[C@H]1CC[C@H]2/C(=C/C=C3C[C@@H](O)C[C@H](O)C3)CCC[C@]12C | 1.95 mmol/L | 2.05 mmol/L | – | 2.07 mmol/L | 2.03 mmol/L | – | – | – | –
718 µM | 0.321 µM | 191 µM | – | C[C@H](CCCCNS(C)(=O)=O)[C@H]1CC[C@H]2/C(=C/C=C3C[C@@H](O)C[C@H](O)C3)CCC[C@]12C | – | – | – | – | – | 2.01 mmol/L | 1.92 mmol/L | 2.22 mmol/L | 1.88 mmol/L

The remaining lines, values behind:

Structure (SMILES) | IC50 [1] | IC50 [3] | IC50 [4] | IC50 [8] | Activity [2] | Activity [5] | Activity [6] | Activity [7] | Activity [9] | Activity [10] | Activity [11] | Activity [12] | Activity [13]
C[C@H](CCCCC(=O)Nc1ccccc1N)[C@H]1CC[C@H]2/C(=C/C=C3C[C@@H](O)C[C@H](O)C3)CCC[C@]12C | 104 µM | 0.185 µM | 81.1 µM | 189 µM | 1.8 mmol/L | 1.97 mmol/L | Active | 2.09 mmol/L | 2.04 mmol/L | – | – | – | –
C[C@H](CCCC(=O)Nc1ccccc1N)[C@H]1CC[C@H]2/C(=C/C=C3C[C@@H](O)C[C@H](O)C3)CCC[C@]12C | 460 µM | 0.524 µM | 330 µM | – | – | – | – | – | – | 2.07 mmol/L | 2.14 mmol/L | 2.05 mmol/L | 1.89 mmol/L
CCCCS(=O)(=O)NCCCC[C@@H](C)[C@H]1CC[C@H]2/C(=C/C=C3C[C@@H](O)C[C@H](O)C3)CCC[C@]12C | 725 µM | 0.029 µM | 101 µM | – | 2.05 mmol/L | 1.99 mmol/L | – | 1.99 mmol/L | 2.12 mmol/L | – | – | – | –
CNC(=O)C(=O)CCCC[C@@H](C)[C@H]1CC[C@H]2/C(=C/C=C3C[C@@H](O)C[C@H](O)C3)CCC[C@]12C | 36 µM | – | 64 µM | 90.4 µM | – | – | Active | – | – | – | – | – | –
C[C@H](CCCCNS(=O)(=O)C(F)(F)F)[C@H]1CC[C@H]2/C(=C/C=C3C[C@@H](O)C[C@H](O)C3)CCC[C@]12C | 695 µM | 0.014 µM | 153 µM | – | – | – | – | – | – | – | – | – | –
